In US20220105170A1 (priority 2019, published 2022):

Tested on: peripheral blood lymphocytes collected from swine exposed to ASFV
Type: cell-based

2126 (TAIQKNYFRF) [compound 2126]
Number of Spots: 13

2127 (AIQKNYFRF) [compound 2127]
Number of Spots: 15

2134 (KNYFRFFKK) [compound 2134]
Number of Spots: 16

2137 (KNYFRFFKKL) [compound 2137]
Number of Spots: 12

2139 (NYFRFFKKLL) [compound 2139]
Number of Spots: 19

2140 (YFRFFKKLL) [compound 2140]
Number of Spots: 16

2141 (RFFKKLLTHF) [compound 2141]
Number of Spots: 12

2142 (RFFKKLLTH) [compound 2142]
Number of Spots: 12

2146 (KLLTHFNIYR) [compound 2146]
Number of Spots: 16

2159 (RIHTRFGQYY) [compound 2159]
Number of Spots: 15

2166 (KIDDFIRLY) [compound 2166]
Number of Spots: 13

2171 (FIRLYPHIFY) [compound 2171]
Number of Spots: 18

2175 (RLYPHIFYR) [compound 2175]
Number of Spots: 16

2181 (YPHIFYRPLY) [compound 2181]
Number of Spots: 12

2183 (PHIFYRPLYR) [compound 2183]
Number of Spots: 15

2185 (HIFYRPLYRY) [compound 2185]
Number of Spots: 15

2193 (ALNRHITTY) [compound 2193]
Number of Spots: 12

2194 (RSCDYAPGFY) [compound 2194]
Number of Spots: 12

2197 (KVRNKAIELY) [compound 2197]
Number of Spots: 17

2205 (SVEELLSAV) [compound 2205]
Number of Spots: 13

2211 (ASFKEGLSL) [compound 2211]
Number of Spots: 12

2213 (KTSSNIILY) [compound 2213]
Number of Spots: 12

2222 (ISFSEMLTRYW) [compound 2222]
Number of Spots: 12

2223 (SFSEMLTRY) [compound 2223]
Number of Spots: 12

2225 (SFSEMLTRYW) [compound 2225]
Number of Spots: 12

2241 (YNLTEAIQYF) [compound 2241]
Number of Spots: 14

2242 (YNLTEAIQY) [compound 2242]
Number of Spots: 12

2251 (AIQYFYQRY) [compound 2251]
Number of Spots: 12

2252 (AIQYFYQRYR) [compound 2252]
Number of Spots: 13

2265 (RYRHFKDWRLI) [compound 2265]
Number of Spots: 13

2266 (YRHFKDWRL) [compound 2266]
Number of Spots: 14

VLIEFLTGFF [SEQ ID NO. 554]
Number of Spots: 16
